We go through 18 compounds from US10821115B2, “Compounds that inhibit Mcl-1 protein” (priority 2017, dated 2020).

The target of test [1] is recombinant human Mcl-1 (residues 171-327) / Bim interaction (Homo sapiens (Human), UniProt Q07820). Description: biochemical. Type of test: binding. Particulars: read-out: Mcl-1 HTRF IC50.
Test [2] deals with human multiple myeloma cell line, OPM-2. The test is described as follows: Cell viability assay (OPM-2 10 FBS), CellTiter-Glo. Type of test: cell-based. A digest of the protocol: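 Steps: plate cells at 3000/well in 10% FBS growth medium, add serially diluted compound, incubate 16 h at 37 °C with 5% CO2, add detection reagent and read luminescence after 25 min. A 4-parameter logistic model gives IC50.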

Where [3] appears, read: TR-FRET, Mcl-1(171-327) / biotin-Bim (51-76).
[4] abbreviates: read-out: OPM-2 10% FBS IC50 IP, OPM-2 cells, 10% FBS, 16 h, CellTiter-Glo.
Where [5] appears, read: Homo sapiens, OPM-2, 16 h, read-out: OPM-2 10% FBS IC50 IP, OPM-2 cells, 10% FBS, 16 h, CellTiter-Glo.
Setting [6] is: 0.1 nM Mcl-1(171-327), 0.05 nM biotin-Bim (51-76).
The mark [7] stands for this setting: read-out: OPM-2 10% FBS IC50 IP, OPM-2 cells, 10% FBS, 16 h incubation.
Setting [8] is: Homo sapiens, OPM-2, 16 h, read-out: OPM-2 10% FBS IC50 IP, OPM-2 cells, 10% FBS, 16 h incubation.

Each structure is given as a SMILES string. Like-named read-outs stand apart in the source and are kept apart here.

Chain of recombinant human Mcl-1 (residues 171-327) / Bim interaction (Q07820 171-327): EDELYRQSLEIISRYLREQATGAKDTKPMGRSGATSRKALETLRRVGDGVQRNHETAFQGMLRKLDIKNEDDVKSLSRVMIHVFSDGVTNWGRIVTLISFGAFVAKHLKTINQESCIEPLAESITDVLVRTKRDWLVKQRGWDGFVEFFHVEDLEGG

Turning to `C[C@@H]1[C@@H](C)C/C=C/[C@@](O)(C#CCN2CCOCC2)[C@@H]2CC[C@H]2CN2C[C@@]3(CCCc4cc(Cl)ccc43)COc3ccc(cc32)C(=O)NS1(=O)=O` [Example 100320, (1S,3′R,6′R,7′S,8′E,11′S,12′R)-6-chloro-7′-hydroxy-11′,12′-dimethyl-7′-(3-(4-morpholinyl)-1-propyn-1-yl)-3,4-dihydro-2H,15′H-spiro[naphthalene-1,22′-[20]oxa[13]thia[1,14]diazatetracyclo [14.7.2.0~3,6~.0~19,24~]pentacosa[8,16,18,24]tetraen]-15′-one 13′,13′-dioxide], the results for the IC50 in test [1] (setting [3]) and in test [2] (setting [4]) were 1.2 nM and 2140 nM, respectively.

Turning to `COCC[C@@H]1[C@@H](C)C/C=C/[C@@](O)(C2SCCCS2)[C@@H]2CC[C@H]2CN2C[C@@]3(CCCc4cc(Cl)ccc43)COc3ccc(cc32)C(=O)NS1(=O)=O` [Example 100513, (1S,3′R,6′R,7′S,8′E,11′S,12′R)-6-chloro-7′-(1,3-dithian-2-yl)-7′-hydroxy-12′-(2-methoxyethyl)-11′-methyl-3,4-dihydro-2H,15′H-spiro[naphthalene-1,22′-[20]oxa[13]thia[1,14]diazatetracyclo [14.7.2.0~3,6~.0~19,24~]pentacosa[8,16,18,24]tetraen]-15′-one 13′,13′-dioxide], the IC50 came out at 0.071 nM in test [1] (setting [3]) and 288 nM in test [2] (setting [5]).

In the case of `CO[C@]1(CN2CCN3CCC(F)(F)C[C@@H]3C2)/C=C/C[C@H](C)[C@@H](C)S(=O)(=O)NC(=O)c2ccc3c(c2)N(C[C@@H]2CC[C@H]21)C[C@@]1(CCCc2cc(Cl)ccc21)CO3` [Example 292], the figures for the concentration for half-maximal inhibition (IC50) in test [1] (setting [6]) and in test [2] (setting [7]) were 0.356 nM and 399 nM, respectively.

As to `CO[C@]1(CN2CCN3CC[C@H](F)C[C@@H]3C2)/C=C/C[C@H](C)[C@@H](C)S(=O)(=O)NC(=O)c2ccc3c(c2)N(C[C@@H]2CC[C@H]21)C[C@@]1(CCCc2cc(Cl)ccc21)CO3` (single isomer, unassigned) [Example 325], the IC50 in test [1] (setting [6]) was 0.18 nM; in test [2] (setting [7]), 192 nM.

As for `COC(OC)c1cncc([C@]2(O)/C=C/C[C@H](C)[C@@H](C)S(=O)(=O)NC(=O)c3ccc4c(c3)N(C[C@@H]3CC[C@H]32)C[C@@]2(CCCc3cc(Cl)ccc32)CO4)c1` (single isomer, unassigned) [Example 100510], the results for the IC50 in test [1] (setting [3]) and in test [2] (setting [5]) were 0.07 nM and 379 nM, respectively.

As for `CC(C)CO[C@@]1(CN2CCN3CCOC[C@@H]3C2)/C=C/C[C@H](C)[C@@H](C)S(=O)(=O)NC(=O)c2ccc3c(c2)N(C[C@@H]2CC[C@H]21)C[C@@]1(CCCc2cc(Cl)ccc21)CO3` [Example 349, (1S,3′R,6′R,7′S,8′E,11′S,12′R)-6-chloro-7′-((9aS)-hexahydropyrazino[2,1-c][1,4]oxazin-8(1H)-ylmethyl)-11′,12′-dimethyl-7′-(2-methylpropoxy)-3,4-dihydro-2H,15′H-spiro[naphthalene-1,22′-[20]oxa[13]thia[1,14]diazatetracyclo [14.7.2.0~3,6~.0~19,24~]pentacosa[8,16,18,24]tetraen]-15′-one 13′,13′-dioxide], the results for the 50% inhibitory concentration (IC50) in test [1] (setting [6]) and in test [2] (setting [8]) were 1.61 nM and 7790 nM, respectively.

Regarding `CO[C@@]1(CN2CCc3ncsc3C2)/C=C/C[C@H](C)[C@@H](C)S(=O)(=O)NC(=O)c2ccc3c(c2)N(C[C@@H]2CC[C@H]21)C[C@@]1(CCCc2cc(Cl)ccc21)CO3` [Example 209], the IC50 in test [1] (setting [6]) was determined as 0.552 nM; in test [2] (setting [8]) it was 437 nM.

For `C[C@@H]1[C@@H](C)C/C=C/[C@@](C)(O)[C@@H]2CC[C@H]2CN2C[C@@]3(CCCc4cc(Cl)ccc43)COc3ccc(cc32)C(=O)NS1(=O)=O` [Example 100182, (1S,3′R,6′R,7′R,8′E,11′S,12′R)-6-chloro-7′-hydroxy-7′,11′,12′-trimethyl-3,4-dihydro-2H,15′H-spiro[naphthalene-1,22′-[20]oxa[13]thia[1,14]diazatetracyclo [14.7.2.0~3,6~.0~19,24~]pentacosa[8,16,18,24]tetraen]-15′-one 13′,13′-dioxide], the values for the IC50 in test [1] and in test [2] (setting [5]) were 0.863 nM and 827 nM, respectively.

Take `CCOC[C@@]1(O)CCC[C@H](C)[C@@H](C)S(=O)(=O)NC(=O)c2ccc3c(c2)N(C[C@@H]2CC[C@H]21)C[C@@]1(CCCc2cc(Cl)ccc21)CO3` [Example 100190, (1S,3′R,6′R,7′R,11′S,12′R)-6-chloro-7′-(ethoxymethyl)-7′-hydroxy-11′,12′-dimethyl-3,4-dihydro-2H,15′H-spiro[naphthalene-1,22′-[20]oxa[13]thia[1,14]diazatetracyclo [14.7.2.0~3,6~.0~19,24~]pentacosa[16,18,24]trien]-15′-one 13′,13′-dioxide]: the IC50 in test [1] (setting [3]) was found to be 4.79 nM; in test [2] (setting [5]) it was 2480 nM.

For `C=CC[C@@]1(O)/C=C/C[C@H](C)[C@@H](C)S(=O)(=O)NC(=O)c2ccc3c(c2)N(C[C@@H]2CC[C@H]21)C[C@@]1(CCCc2cc(Cl)ccc21)CO3` [Example 100130, (1S,3′R,6′R,7′R,8′E,11′S,12′R)-6-chloro-7′-hydroxy-11′,12′-dimethyl-7′-(2-propen-1-yl)-3,4-dihydro-2H,15′H-spiro[naphthalene-1,22′-[20]oxa[13]thia[1,14]diazatetracyclo [14.7.2.0~3,6~.0~19,24~]pentacosa[8,16,18,24]tetraen]-15′-one 13′,13′-dioxide], the figures for the IC50 in test [1] (setting [3]) and in test [2] (setting [4]) were 2.69 nM and 2170 nM, respectively.

`C[C@@H]1[C@@H](C)CCC[C@]2(CCO2)[C@@H]2CC[C@H]2CN2C[C@@]3(CCCc4cc(Cl)ccc43)COc3ccc(cc32)C(=O)NS1(=O)=O` (single isomer, unassigned) [Example 100229]: the IC50 in test [1] (setting [3]) was found to be 0.356 nM; in test [2] (setting [5]) it was 1490 nM.

Turning to `C[C@@H]1[C@@H](C)C/C=C/[C@](O)(c2nccn2C)[C@@H]2CC[C@H]2CN2C[C@@]3(CCCc4cc(Cl)ccc43)COc3ccc(cc32)C(=O)NS1(=O)=O` [Example 100186, (1S,3′R,6′R,7′R,8′E,11′S,12′R)-6-chloro-7′-hydroxy-11′,12′-dimethyl-7′-(1-methyl-1H-imidazol-2-yl)-3,4-dihydro-2H,15′H-spiro[naphthalene-1,22′-[20]oxa[13]thia[1,14]diazatetracyclo [14.7.2.0~3,6~.0~19,24~]pentacosa[8,16,18,24]tetraen]-15′-one 13′,13′-dioxide], the figures for the IC50 in test [1] (setting [3]) and in test [2] (setting [5]) were 0.377 nM and 312 nM, respectively.

`CO[C@@]1(CCO)/C=C/C[C@H](C)[C@@H](C)S(=O)(=O)NC(=O)c2ccc3c(c2)N(C[C@@H]2CC[C@H]21)C[C@@]1(CCCc2cc(Cl)ccc21)CO3` [Example 100218, (1S,3′R,6′R,7′S,8′E,11′S,12′R)-6-chloro-7′-(2-hydroxyethyl)-7′-methoxy-11′,12′-dimethyl-3,4-dihydro-2H,15′H-spiro[naphthalene-1,22′-[20]oxa[13]thia[1,14]diazatetracyclo [14.7.2.0~3,6~.0~19,24~]pentacosa[8,16,18,24]tetraen]-15′-one 13′,13′-dioxide]: the results for the concentration for half-maximal inhibition (IC50) in test [1] (setting [3]) and in test [2] (setting [5]) were 0.621 nM and 675 nM, respectively.

Regarding `C[C@@H]1[C@@H](C)C/C=C/[C@@](O)(C2CC2)[C@@H]2CC[C@H]2CN2C[C@@]3(CCCc4cc(Cl)ccc43)COc3ccc(cc32)C(=O)NS1(=O)=O` [Example 100214, (1S,3′R,6′R,7′S,8′E,11′S,12′R)-6-chloro-7′-cyclopropyl-7′-hydroxy-11′,12′-dimethyl-3,4-dihydro-2H,15′H-spiro[naphthalene-1,22′-[20]oxa[13]thia[1,14]diazatetracyclo [14.7.2.0~3,6~.0~19,24~]pentacosa[8,16,18,24]tetraen]-15′-one 13′,13′-dioxide], the IC50 came to 0.143 nM in test [1] (setting [3]) and 95 nM in test [2] (setting [5]).

On to `C[C@@H]1[C@@H](C)CCC[C@@](O)(C[C@H]2CCCN(C)C2)[C@@H]2CC[C@H]2CN2C[C@@]3(CCCc4cc(Cl)ccc43)COc3ccc(cc32)C(=O)NS1(=O)=O` (single isomer, unassigned) [Example 100398], for which the IC50 is 0.618 nM in test [1] (setting [3]) and 457 nM in test [2] (setting [5]).

Take `C[C@@H]1[C@@H](C)C/C=C/[C@@](O)(c2ncnn2C)C2CC[C@H]2CN2C[C@@]3(CCCc4cc(Cl)ccc43)COc3ccc(cc32)C(=O)NS1(=O)=O` (stereo in doubt) [Example 100222, (1S,3′R,6′S,7′S,8′E,11′S,12′R)-6-chloro-7′-hydroxy-11′,12′-dimethyl-7′-(1-methyl-1H-1,2,4-triazol-5-yl)-3,4-dihydro-2H,15′H-spiro[naphthalene-1,22′-[20]oxa[13]thia[1,14]diazatetracyclo [14.7.2.0~3,6~.0~19,24~]pentacosa[8,16,18,24]tetraen]-15′-one 13′,13′-dioxide]: the results for the IC50 in test [1] (setting [3]) and in test [2] (setting [5]) were 0.182 nM and 222 nM, respectively.

In the case of `C[C@@H]1[C@@H](C)CCC[C@@](O)(C#CCN2CCOCC2)[C@@H]2CC[C@H]2CN2C[C@@]3(CCCc4cc(Cl)ccc43)COc3ccc(cc32)C(=O)NS1(=O)=O` [Example 100354, (1S,3′R,6′R,7′S,11′S,12′R)-6-chloro-7′-hydroxy-11′,12′-dimethyl-7′-(3-(4-morpholinyl)-1-propyn-1-yl)-3,4-dihydro-2H,15′H-spiro[naphthalene-1,22′-[20]oxa[13]thia[1,14]diazatetracyclo [14.7.2.0~3,6~.0~19,24~]pentacosa[16,18,24]trien]-15′-one 13′,13′-dioxide], the IC50 in test [1] (setting [3]) amounted to 0.109 nM; in test [2] (setting [5]), 147 nM.

As to `C[C@@H]1[C@@H](C)CCC[C@@]2(C[C@H](C)C(=O)O2)[C@@H]2CC[C@H]2CN2C[C@@]3(CCCc4cc(Cl)ccc43)COc3ccc(cc32)C(=O)NS1(=O)=O` (stereo in doubt) [Example 100129], the results for the IC50 in test [1] (setting [3]) and in test [2] (setting [5]) were 2.4 nM and 4870 nM, respectively.
